Data set [1] can be described thus: Potentiometric titration of DPDP (ligand proton titration). The conditions noted are these: pH of 3 and above. The format is physicochemical. The text has this:
The compound DPDP was studied potentiometrically from pH 11.2 to 2.0. Data sets were collected on a custom-built automatic potentiometric titration apparatus composed of a METROHM 655 DOSIMAT automatic buret, a FISHER ACCUMET pH meter with a CORNING calomel combination electrode, a custom-blown water jacketed titration cell, a BRINKMAN LAUDA K-2/R constant temperature bath and a COMMODORE 64 computer. The BASIC computer program TITRATOR (Harris, W. et al, J.Am.Chem.Soc. 101:6534 (1979)) runs the apparatus. Data analysis was performed on an IBM-AT computer using the least squares program, BETA (Harris, W. et al, supra), and the data analysis program, HANDNBAR (Harris, W. et al, supra). The titrants were standardized by phenophthalein titration as follows: KOH was calibrated against potassium hydrogen phthalate (a primary standard), and HCl solutions were calibrated against the KOH standard. The Mn(II)Cl2 solution was standardized with an EDTA titration using Erichrome Black T as the indicator. All solutions were made from distilled, deionized water that was further purified on a MILLI-Q cartridge system, degassed, and then kept under an atmosphere of argon which had been scrubbed for CO2 and O2. Additions of EDTA and Mn(II) solutions were performed using calibrated GILMOT pipets. […]

For data set [2] the following is noted: cited from earlier work.

Consider four molecules from US5091169A, “Dipyridoxyl phosphate NMRI contrast agent compositions” (priority 1989, dated 1992).

For the molecule `Cc1ncc(COP(=O)(O)O)c(CN(CCN(CC(=O)O)Cc2c(COP(=O)(O)O)cnc(C)c2O)CC(=O)O)c1O` [DPDP, N,N'-bis(3-hydroxy-2-methyl-5-phosphonomethyl-4-pyridylmethyl)ethylenediamine-N,N'-diacetic acid], the “ligand charge / deprotonation state” value in data set [1] was “anionic and possesses deprotonated metal binding sites”. Take `O=C(O)CN(CCN(CC(=O)O)Cc1ccccc1O)Cc1ccccc1O` [HBED, N,N'-bis(2-hydroxybenzyl)ethylenediamine-N,N'-diacetic acid]: in data set [2] (L'Eplathenier et al titrations), the “oxidation of manganese(II) during titration” value is recorded as “the manganese(II) ion was oxidized by the phenolic ligand”.

On to `O=C([O-])C(NCCNC(C(=O)[O-])c1ccccc1O)c1ccccc1O.[Mn+2]` (stereo not shown) [Mn(II) chelates of EHPG], for which the “stability of manganese(II) complex” value in data set [2] (above pH 5, Frost et al) was “irreversibly oxidized”. Consider `O=C([O-])CN(CCN(CC(=O)[O-])Cc1ccccc1O)Cc1ccccc1O.[Mn+2]` [manganese chelate of N,N'-bis(2-hydroxybenzyl)ethylenediamine-N,N'-diacetic acid], for which the “log Kf (formation constant)” value in data set [2] (manganese chelate, reported by L'Eplathenier et al) was 14.8.
